The source of these data is ChEMBL document CHEMBL1201862, “PubChem BioAssay data set” (2004).

Experiment [1] in a line: PhoP promoter GFP reporter reduction in Typhimurium – purified and synthesized compounds, set 2, PhoP regulon inhibitor project, dose response (AID 2831). In kind it is functional.
Experiment [2] is described as follows: viability of HCT116 lacking mutant beta-catenin – cell-based, human colon tumor, dose response (AID 1045).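 Note: HCT116 colon tumor cells with beta catenin knocked out; cells exposed to compound for 60 hours.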 In kind it is functional.
The nature of experiment [3]: viability of PTEN-deleted HCT116 cells – cell-based, HCT116 PTEN knockout, dose response (AID 1047).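 Note: HCT116 colon tumor cells with PTEN knocked out; cells exposed to compound for 60 hours before readout; potency for loss of cell viability measured by luminescence.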 It counts as functional.
Another experiment has as its target T1, Streptokinase A (Streptococcus pyogenes serotype M1, UniProt P10520).
T1 sequence (P10520 whole entry): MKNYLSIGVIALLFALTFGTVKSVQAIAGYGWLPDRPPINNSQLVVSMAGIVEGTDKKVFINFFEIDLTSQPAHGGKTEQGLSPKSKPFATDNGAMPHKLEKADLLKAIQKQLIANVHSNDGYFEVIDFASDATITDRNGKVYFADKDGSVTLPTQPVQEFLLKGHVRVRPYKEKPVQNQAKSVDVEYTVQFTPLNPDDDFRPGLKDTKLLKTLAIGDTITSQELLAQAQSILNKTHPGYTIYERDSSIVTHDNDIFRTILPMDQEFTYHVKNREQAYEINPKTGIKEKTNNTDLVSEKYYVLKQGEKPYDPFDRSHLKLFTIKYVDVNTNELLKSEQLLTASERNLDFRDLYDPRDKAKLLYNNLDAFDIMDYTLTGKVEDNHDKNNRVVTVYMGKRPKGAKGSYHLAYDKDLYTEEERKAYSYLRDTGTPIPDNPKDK
Briefly: viability-normalized secreted streptokinase activity reduction – plasminogen activation absorbance, OD405, dose response (AID 1914).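 Note: secreted streptokinase activity via plasminogen activation per viability signal from cell pellet.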 It counts as functional, Streptococcus pyogenes M1 GAS.

Experiment [4] is described as follows: Luminescence Cell-Based Dose Retest to Confirm Inhibitors of Cancer Stem Cells. [Related pubchem assays (depositor defined):AID2717, AID2721]. In kind it is functional. The settings on record: Homo sapiens.
The test system of experiment [5] is Streptococcus sp. 'group A'. Briefly: Streptococcus pyogenes SK(-)GAS viability under kanamycin – luminescence, BacTiterGlo, confirmation, counter-screen for streptokinase expression inhibitor project, dose response (AID 1900). In kind it is functional, organism-based.
The subject of the next experiment is Streptococcus. Briefly: GAS UMAA2166 growth inhibition – luminescence, BacTiterGlo, counter-screen for streptokinase expression inhibitor project, dose response (AID 1915).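 Note: potency for reduction of bacterial viability or growth.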 It counts as functional, organism-based. (The purpose of a counterscreen is to sort out artefacts and off-target activity.)
Experiment [6] deals with Voltage-dependent T-type calcium channel subunit alpha-1H (Homo sapiens, UniProt O95180). Briefly: inhibition of CACNA1H calcium flux – cell-based, SynthLib3 library, HEK293 Cav3.2, fluorescence (AID 493041). In kind it is functional.
In experiment [7] the target is Nucleotide-binding oligomerization domain-containing protein 2 (Homo sapiens, UniProt Q9HC29). Briefly: PubChem AID 2334. It counts as functional.
Nucleotide-binding oligomerization domain-containing protein 2, sequence (Q9HC29 whole entry, the tested form may be a part): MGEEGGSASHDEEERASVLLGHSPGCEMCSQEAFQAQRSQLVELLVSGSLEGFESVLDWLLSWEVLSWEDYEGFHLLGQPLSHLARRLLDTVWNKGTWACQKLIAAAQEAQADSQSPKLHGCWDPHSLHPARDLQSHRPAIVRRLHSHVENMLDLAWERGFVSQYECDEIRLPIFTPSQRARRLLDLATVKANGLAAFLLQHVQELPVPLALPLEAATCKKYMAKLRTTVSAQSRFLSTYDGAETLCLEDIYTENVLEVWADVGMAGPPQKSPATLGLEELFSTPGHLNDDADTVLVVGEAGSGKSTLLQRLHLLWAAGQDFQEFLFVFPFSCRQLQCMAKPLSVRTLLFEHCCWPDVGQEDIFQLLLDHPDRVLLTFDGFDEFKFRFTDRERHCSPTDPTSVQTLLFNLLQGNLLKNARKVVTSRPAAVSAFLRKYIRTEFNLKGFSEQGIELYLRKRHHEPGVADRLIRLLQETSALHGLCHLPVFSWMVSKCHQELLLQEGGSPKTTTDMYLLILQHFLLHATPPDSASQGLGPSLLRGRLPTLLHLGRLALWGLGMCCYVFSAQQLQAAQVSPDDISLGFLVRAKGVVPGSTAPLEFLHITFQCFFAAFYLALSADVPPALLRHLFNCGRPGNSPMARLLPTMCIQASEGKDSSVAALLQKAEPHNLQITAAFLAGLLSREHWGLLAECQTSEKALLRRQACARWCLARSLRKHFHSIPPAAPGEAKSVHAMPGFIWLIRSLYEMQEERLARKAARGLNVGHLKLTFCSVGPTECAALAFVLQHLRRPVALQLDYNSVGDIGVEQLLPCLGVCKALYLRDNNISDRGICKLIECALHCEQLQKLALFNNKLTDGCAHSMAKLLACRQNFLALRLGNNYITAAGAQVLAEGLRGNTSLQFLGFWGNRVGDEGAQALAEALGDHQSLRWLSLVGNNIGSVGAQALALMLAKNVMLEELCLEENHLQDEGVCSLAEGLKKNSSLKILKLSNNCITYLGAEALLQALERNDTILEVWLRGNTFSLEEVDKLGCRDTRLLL
For experiment [8], the target named is Nucleotide-binding oligomerization domain-containing protein 1 (Homo sapiens, UniProt Q9Y239). Briefly: blockers of NOD1 pathway activity – revised, SAR follow-up (AID 2333). It counts as functional.
Nucleotide-binding oligomerization domain-containing protein 1, sequence (Q9Y239 whole entry, the tested form may be a part): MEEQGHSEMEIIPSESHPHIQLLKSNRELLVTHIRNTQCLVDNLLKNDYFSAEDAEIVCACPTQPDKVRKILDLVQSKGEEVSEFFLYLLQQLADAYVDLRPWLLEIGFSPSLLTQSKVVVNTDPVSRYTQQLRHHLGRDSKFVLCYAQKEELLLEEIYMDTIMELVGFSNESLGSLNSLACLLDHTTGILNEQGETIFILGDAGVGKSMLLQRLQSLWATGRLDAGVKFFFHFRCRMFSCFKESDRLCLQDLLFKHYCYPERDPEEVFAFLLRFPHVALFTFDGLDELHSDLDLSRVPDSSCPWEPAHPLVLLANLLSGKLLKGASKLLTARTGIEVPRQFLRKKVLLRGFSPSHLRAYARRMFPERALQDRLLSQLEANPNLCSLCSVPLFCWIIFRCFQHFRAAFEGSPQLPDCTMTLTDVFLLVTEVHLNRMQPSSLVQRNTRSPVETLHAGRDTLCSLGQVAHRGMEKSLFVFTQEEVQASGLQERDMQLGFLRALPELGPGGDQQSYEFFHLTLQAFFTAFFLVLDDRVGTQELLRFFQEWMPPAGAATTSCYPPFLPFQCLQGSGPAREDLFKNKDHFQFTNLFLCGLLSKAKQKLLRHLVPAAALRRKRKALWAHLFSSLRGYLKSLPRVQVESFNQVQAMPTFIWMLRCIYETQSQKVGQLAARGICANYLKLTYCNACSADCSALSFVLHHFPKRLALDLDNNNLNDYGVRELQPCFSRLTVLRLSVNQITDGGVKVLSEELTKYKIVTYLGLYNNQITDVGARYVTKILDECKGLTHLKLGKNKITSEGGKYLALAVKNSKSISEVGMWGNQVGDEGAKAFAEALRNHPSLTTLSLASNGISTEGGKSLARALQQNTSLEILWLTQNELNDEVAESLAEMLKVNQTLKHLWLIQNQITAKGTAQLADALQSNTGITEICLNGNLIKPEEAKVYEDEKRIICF
Another experiment relates to HEK293. Briefly: cells. The settings on record: Homo sapiens.
Another experiment has as its target Tumor necrosis factor (Homo sapiens, UniProt P01375). Briefly: analog potency on TNFa NF-kB signaling – cell-based, revised, SAR follow-up (AID 2337). In kind it is functional.
For experiment [9], the target named is Kappa-type opioid receptor (Homo sapiens, UniProt P41145). Briefly: SAR analysis of small molecule agonists of the kappa opioid receptor via a luminescent beta-arrestin assay - Set 3. [Related pubchem assays (depositor defined):AID1777, AID1785, AID1786, AID1966, AID2133, AID2136, AID2284, AID2500]. It counts as functional.
Kappa-type opioid receptor, sequence (P41145 whole entry): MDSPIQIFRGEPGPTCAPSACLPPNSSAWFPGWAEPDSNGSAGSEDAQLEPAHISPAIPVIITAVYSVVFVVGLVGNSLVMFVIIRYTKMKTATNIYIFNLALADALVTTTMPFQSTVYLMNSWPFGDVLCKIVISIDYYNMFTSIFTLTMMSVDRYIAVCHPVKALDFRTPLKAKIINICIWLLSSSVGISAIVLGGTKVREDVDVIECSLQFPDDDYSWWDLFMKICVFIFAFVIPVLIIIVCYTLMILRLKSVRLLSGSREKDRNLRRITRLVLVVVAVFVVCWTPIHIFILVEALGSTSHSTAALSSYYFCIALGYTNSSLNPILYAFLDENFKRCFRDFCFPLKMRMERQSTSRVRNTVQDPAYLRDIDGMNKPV
For experiment [10], the target named is G-protein coupled receptor 55 (Homo sapiens, UniProt Q9Y2T6). Briefly: blockers of GPR55 signalling, imaged – imaging, image-based, counter-screen for GPR35 antagonist project, SAR follow-up (AID 2397). It counts as functional.
G-protein coupled receptor 55, sequence (Q9Y2T6 whole entry): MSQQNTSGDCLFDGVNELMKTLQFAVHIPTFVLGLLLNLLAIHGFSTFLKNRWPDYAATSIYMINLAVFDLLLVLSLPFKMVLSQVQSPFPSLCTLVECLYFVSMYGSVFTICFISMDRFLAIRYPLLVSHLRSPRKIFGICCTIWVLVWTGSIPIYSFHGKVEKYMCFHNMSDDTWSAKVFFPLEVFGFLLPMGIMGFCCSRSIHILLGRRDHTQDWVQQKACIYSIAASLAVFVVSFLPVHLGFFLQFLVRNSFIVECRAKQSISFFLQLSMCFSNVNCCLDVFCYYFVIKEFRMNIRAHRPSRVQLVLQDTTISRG
The target of experiment [11] is T2, G-protein coupled receptor 35 (Homo sapiens, UniProt Q9HC97). Briefly: inhibition of zaprinast-stimulated GPR35 beta-arrestin translocation – imaging, U2OS, beta-arrestin-GFP, zaprinast agonist, primary screen (AID 2058).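 Note: antagonist potency meaning inhibition of agonist-induced arrestin redistribution.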 In kind it is functional.
T2 sequence (Q9HC97 whole entry): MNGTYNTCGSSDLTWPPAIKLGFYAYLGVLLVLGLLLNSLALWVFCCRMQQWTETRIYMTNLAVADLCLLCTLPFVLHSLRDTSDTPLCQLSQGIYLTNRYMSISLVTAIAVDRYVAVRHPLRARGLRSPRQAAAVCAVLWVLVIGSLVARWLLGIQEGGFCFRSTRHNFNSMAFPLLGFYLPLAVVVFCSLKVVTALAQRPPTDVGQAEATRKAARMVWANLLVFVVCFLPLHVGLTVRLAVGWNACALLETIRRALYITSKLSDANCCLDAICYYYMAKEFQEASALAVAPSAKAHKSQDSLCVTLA
For experiment [12], the target named is T3, Tyrosine-protein phosphatase non-receptor type 22 (Homo sapiens, UniProt Q9Y2R2).
T3 sequence (Q9Y2R2 whole entry): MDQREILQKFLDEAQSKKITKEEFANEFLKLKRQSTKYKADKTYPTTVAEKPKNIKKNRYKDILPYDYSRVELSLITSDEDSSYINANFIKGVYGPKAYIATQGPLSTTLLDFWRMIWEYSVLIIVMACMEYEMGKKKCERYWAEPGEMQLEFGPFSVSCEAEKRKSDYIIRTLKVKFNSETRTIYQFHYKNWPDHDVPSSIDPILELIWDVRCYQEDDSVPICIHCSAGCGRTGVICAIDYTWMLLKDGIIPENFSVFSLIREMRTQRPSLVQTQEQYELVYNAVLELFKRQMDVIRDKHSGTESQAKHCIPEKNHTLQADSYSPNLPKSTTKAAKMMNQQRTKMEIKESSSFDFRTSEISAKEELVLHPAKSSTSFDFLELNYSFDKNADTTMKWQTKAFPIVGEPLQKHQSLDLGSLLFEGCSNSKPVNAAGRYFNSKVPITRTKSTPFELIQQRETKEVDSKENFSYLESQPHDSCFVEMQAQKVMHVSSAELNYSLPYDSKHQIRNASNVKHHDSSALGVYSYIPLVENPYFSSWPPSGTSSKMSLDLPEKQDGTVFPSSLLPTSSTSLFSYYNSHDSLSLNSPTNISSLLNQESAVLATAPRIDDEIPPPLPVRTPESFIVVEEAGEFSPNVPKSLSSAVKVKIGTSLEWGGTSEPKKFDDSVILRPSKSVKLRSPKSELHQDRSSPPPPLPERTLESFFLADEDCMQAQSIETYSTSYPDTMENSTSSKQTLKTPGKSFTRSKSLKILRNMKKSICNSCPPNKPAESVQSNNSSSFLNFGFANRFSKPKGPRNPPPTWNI
Briefly: SAR LYP1 Fluorescent Assay using OMFP substrate for In Vitro dose response studies - Set 3. [Related pubchem assays (depositor defined):AID1779, AID1784, AID2140, AID2686]. It counts as functional.

In experiment [13] the target is T2, G-protein coupled receptor 35. Briefly: SAR Analysis for the identification of Selective Antagonists of ERK1/2 Activity in GPR35-Overexpressing U2OS Cells. [Related pubchem assays: 2079, 2058 ]. It counts as functional, cell-based.
The target of experiment [14] is T4, Tyrosine-protein phosphatase non-receptor type 7 (Homo sapiens, UniProt P35236).
T4 sequence (P35236 whole entry): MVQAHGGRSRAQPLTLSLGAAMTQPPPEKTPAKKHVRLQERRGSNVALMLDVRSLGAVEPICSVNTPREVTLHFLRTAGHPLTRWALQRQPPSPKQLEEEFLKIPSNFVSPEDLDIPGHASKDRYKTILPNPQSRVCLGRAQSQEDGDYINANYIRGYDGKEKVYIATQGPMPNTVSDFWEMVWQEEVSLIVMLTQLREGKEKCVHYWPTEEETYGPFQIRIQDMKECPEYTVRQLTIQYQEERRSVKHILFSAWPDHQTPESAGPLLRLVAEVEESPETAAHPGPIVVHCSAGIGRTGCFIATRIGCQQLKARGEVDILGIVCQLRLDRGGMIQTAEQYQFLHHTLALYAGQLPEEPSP
Briefly: inhibition of hematopoietic tyrosine phosphatase HePTP – biochemical, set 2, SAR follow-up (AID 449736). In kind it is functional.

The target in experiment [15] is T3, Tyrosine-protein phosphatase non-receptor type 22. Briefly: inhibition of lymphoid tyrosine phosphatase LYP – biochemical, pCAP fluorogenic substrate, fluorescence, set 3, SAR follow-up (AID 449727). In kind it is functional.
For experiment [16], the target named is Tyrosine-protein phosphatase non-receptor type 12 (Homo sapiens, UniProt Q05209). Briefly: SAR Selectivity Analysis of small molecule inhibitors of PEST using pCAP in a fluorescence assay. [Related pubchem assays (depositor defined):AID1779, AID1784, AID2135]. In kind it is functional.
Tyrosine-protein phosphatase non-receptor type 12, sequence (Q05209 whole entry): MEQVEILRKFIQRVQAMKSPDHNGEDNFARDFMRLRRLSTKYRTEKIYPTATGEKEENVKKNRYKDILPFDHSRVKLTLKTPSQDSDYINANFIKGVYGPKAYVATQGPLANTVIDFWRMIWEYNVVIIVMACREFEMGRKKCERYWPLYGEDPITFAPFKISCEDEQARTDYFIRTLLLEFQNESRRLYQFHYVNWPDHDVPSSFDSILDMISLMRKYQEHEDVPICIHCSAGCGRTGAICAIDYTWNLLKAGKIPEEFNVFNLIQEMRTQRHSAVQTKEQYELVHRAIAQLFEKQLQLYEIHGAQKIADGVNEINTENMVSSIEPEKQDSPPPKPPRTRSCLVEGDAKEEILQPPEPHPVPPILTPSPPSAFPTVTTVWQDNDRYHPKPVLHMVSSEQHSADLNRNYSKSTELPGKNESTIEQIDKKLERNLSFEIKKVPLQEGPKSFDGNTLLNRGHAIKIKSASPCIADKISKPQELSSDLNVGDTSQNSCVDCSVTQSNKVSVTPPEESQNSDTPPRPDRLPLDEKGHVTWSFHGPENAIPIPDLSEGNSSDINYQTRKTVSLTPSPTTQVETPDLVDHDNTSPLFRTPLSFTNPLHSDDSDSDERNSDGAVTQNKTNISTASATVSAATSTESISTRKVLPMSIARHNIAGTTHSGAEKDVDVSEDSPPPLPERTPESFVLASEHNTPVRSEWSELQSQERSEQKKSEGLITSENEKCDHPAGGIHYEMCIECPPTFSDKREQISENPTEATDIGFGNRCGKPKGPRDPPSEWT

Structures are written as SMILES. Calls of active or inactive are those of the source.

What is called IC50 is the concentration at which inhibition is half-maximal. By EC50 is commonly meant the concentration at which the effect is half-maximal. Broadly, the AC50 is the midpoint of the concentration-response curve, whichever way the signal moves.
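Throughout, for AC50: cells exposed to compound for roughly 70 hours or longer before luminescence read.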

Tumor necrosis factor, sequence (P01375 whole entry): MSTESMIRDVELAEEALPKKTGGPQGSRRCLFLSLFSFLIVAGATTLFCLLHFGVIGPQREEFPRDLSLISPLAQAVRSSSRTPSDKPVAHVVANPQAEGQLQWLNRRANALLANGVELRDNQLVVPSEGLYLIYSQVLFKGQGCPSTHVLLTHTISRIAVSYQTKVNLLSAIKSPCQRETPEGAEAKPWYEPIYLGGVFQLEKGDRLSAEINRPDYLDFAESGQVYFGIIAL

For `CN1CCN(C2=Cc3cc(Cl)ccc3Sc3cc(F)ccc32)CC1`, in experiment [1], the IC50 was > 125 µM (active). Also, the EC50 in experiment [2] was 10.5 µM (active); in experiment [3], 9.39 µM (active); at Streptokinase A it was > 150 µM (not active); in [5], 7.44 µM (active); in the experiment with Streptococcus, 12 µM (active). Besides, the half-maximal activity concentration (AC50) in experiment [4] was 6.63 µM (active).

Consider `CC(C)(C)Cc1nnc(NC(=O)COc2ccc(F)cc2Cl)o1`, for which the EC50 in [6] is 5.4 µM (active).

For the compound `CC1(C)Cc2c(sc(NC(=O)c3ccco3)c2C(=O)O)CO1`, the IC50 (in experiment [7]; in experiment [8]; in the experiment on HEK293; at Tumor necrosis factor) was > 20 µM (inactive) each time.

For `FC(F)(F)c1cc(CSc2nnc(-c3ccccn3)n2Cc2ccccc2)ccc1Cl`, the EC50 in experiment [9] was 2.22 µM (active).

Turning to `O=C(CCCN1C(=O)/C(=C\c2ccccc2)SC1=S)Nc1cccc(C(=O)O)c1`, the IC50 in experiment [10] was 27.1 µM (inactive); in experiment [11], 0.805 µM (active); in experiment [12], 61 µM (active); in [13] it was 1.64 µM (active); in experiment [14] it was 2.02 µM (active); in [15], 72.6 µM (active). Moreover, the IC50 in experiment [16] is 23.7 µM (active).
